Source: patent publication US12226412B2, “Heteroaryl-ketone fused azadecalin glucocorticoid receptor modulators” (Corcept Therapeutics, Inc., priority 2012, dated 2025)
Read-outs that look alike come from different tables or passages of the source.

What was measured:
[1] = system: induction of TAT by dexamethasone in HepG2 cells; assay: HepG2 tyrosine aminotransferase (TAT) assay; format: cell-based, human
Procedure: Example 21. HepG2 Tyrosine Aminotransferase (TAT) Assay
Glucocorticoid mediated activation of TAT occurs by transactivation of glucocorticoid response elements in the TAT promoter by glucocorticoid receptor agonist complex.
TAT activity was measured as outlined in the literature by A. Ali et al., J. Med. Chem., 2004, 47, 2441-2452.
HepG2 cells were cultured using MEME media supplemented with 10% (v/v) foetal bovine serum; 2 mM L-glutamine and 1% (v/v) NEAA at 37° C., 5%/95% (v/v) CO2/air. The HepG2 cells were counted and adjusted to yield a density of 0.125×10^6 cells/ml in RPMI 1640 without phenol red, 10% (v/v) charcoal stripped FBS, 2 mM L-glutamine and seeded at 25,000 cells/well in 200 μl into 96 well, sterile, tissue culture micro titre plates, and incubated at 37° C., 5% CO2 for 24 hours
Growth media was removed and replaced with assay media {RPMI 1640 without phenol red, 2 mM L-glutamine+10 μM forskolin}. […] Compounds were serially half log diluted in 100% (v/v) dimethylsupfoxide from a 10 mM stock.
HepG2 cells were then lysed with 30 μl of cell lysis buffer containing a protease inhibitor cocktail for 15 minutes at 4° C. 155 μl of substrate mixture was then added containing 5.4 mM Tyrosine sodium salt, 10.8 mM alpha ketoglutarate and 0.06 mM pyridoxal 5′ phosphate in 0.1M potassium phosphate buffer (pH 7.4). After 2 hours incubation at 37° C. the reaction was terminated by the addition of 15 μl of 10M aqueous potassium hydroxide solution, and the plates incubated for a further 30 minutes at 37° C. The TAT activity product was measured by absorbance at […].
[compound] and fitting the data to a 4 parameter logistic equation.

human recombinant GR = target: T1, human recombinant GR (Homo sapiens, UniProt P04150); assay: Human glucocorticoid receptor (GR) fluorescence polarisation (FP) binding assay
T1 construct: purchased PanVera P2812
T1 sequence (P04150 1-777): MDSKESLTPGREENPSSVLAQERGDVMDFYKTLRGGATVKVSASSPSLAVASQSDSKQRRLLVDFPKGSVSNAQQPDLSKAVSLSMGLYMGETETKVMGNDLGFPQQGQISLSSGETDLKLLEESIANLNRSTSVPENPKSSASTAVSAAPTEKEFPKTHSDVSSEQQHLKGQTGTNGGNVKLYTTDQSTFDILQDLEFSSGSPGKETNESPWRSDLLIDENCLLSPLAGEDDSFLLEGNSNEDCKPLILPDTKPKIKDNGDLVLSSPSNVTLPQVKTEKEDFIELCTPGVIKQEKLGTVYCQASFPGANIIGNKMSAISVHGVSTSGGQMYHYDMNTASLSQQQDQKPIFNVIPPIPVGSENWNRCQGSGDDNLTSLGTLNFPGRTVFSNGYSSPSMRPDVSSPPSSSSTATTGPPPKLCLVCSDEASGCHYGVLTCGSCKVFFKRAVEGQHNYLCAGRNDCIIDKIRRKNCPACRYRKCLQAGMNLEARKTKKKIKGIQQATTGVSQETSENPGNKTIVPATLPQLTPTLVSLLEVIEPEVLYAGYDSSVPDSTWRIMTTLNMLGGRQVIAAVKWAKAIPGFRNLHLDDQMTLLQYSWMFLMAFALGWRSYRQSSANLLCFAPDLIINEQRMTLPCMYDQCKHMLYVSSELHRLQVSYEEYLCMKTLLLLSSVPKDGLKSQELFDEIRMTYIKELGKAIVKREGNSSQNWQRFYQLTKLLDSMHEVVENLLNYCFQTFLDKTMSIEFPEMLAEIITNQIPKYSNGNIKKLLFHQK
Procedure: Human Glucocorticoid Receptor (GR) Fluorescence Polarisation (FP) Binding Assay
The following is a description of a FP assay for measuring compound inhibition of labelled glucocorticoid binding to the human recombinant GR.
The binding affinity of test compounds was determined using a FP binding assay using human recombinant GR (PanVera P2812) and a fluorescent labelled glucocorticoid ligand (Fluorome GS Red) (PanVera P2894). The presence of inhibitors prevents the formation of a GS Red/GR complex resulting in a decrease in the measured polarisation value. The change in polarisation value in the presence of test compounds is used to calculate the binding affinity of the compound for GR.
This assay was performed in 384 well, black, round-bottom, polypropylene micro titre plates in a final volume of 20 μl. The assay contained 5 μl 1 nM GR (final concentration), 5 μl 0.5 nM Fluorome GS Red (final concentration) in the presence of 10 μl test compounds. Positive control wells (high polarisation) receive, 10 μl 2% (v: v) DMSO vehicle (1% (v/v) final concentration)+5 μl 1 nM GR and 5 μl 0.5 nM Fluorome GS Red. […] Assay blank background wells (used for normalisation) receive 15 μl 1× GS screening buffer+5 μl GR.
Compounds were prepared as solubilised solids at 10 mM in DMSO. On the day of assay, an 8 point half-log serial dilution (55 μl DMSO+25 μl compound solution) was prepared. A 1:50 dilution (1 μl compound solution+49 μl 1× GR screening buffer) was prepared for each compound. The compounds were prepared at 2× final assay concentration.
The plates were mixed and incubated for 4 hour at room temperature.
10× GR screening buffer (100 mM potassium phosphate pH 7.4, 200 mM Na2MoO4, 1 mM EDTA, 20% (v/v) DMSO). To prepare 1× GR screening buffer, combine 1 ml 10× GR screening buffer (PanVera P2814)+1 ml stabilising peptide (PanVera P2815)+7.95 ml 4° C. MQ water. Add 50 μl 1M DTT, vortex and place on ice until use.

[2] = HepG2 cells, challenge of 100 nM dexamethasone, Ki from IC50 by Cheng and Prusoff equation
[3] = human recombinant GR, fluorescence polarisation binding assay, read-out: GR binding

Structure (SMILES) | Ki [1, 2] [nM] | Ki (human recombinant GR; [3]) [nM] | Ki [1] [nM] | Ki (human recombinant GR) [nM]
O=C(c1ccccn1)[C@]12Cc3cnn(-c4ccc(F)cc4)c3C=C1CCN(S(=O)(=O)C1CCCCC1)C2 [Example 2T, (R)-(6-(cyclohexylsulfonyl)-1-(4-fluorophenyl)-4,4a,5,6,7,8-hexahydro-1H-pyrazolo [3,4-g]isoquinolin-4a-yl)(pyridin-2-yl)methanone] | ≥ 100 | > 1 | – | –
O=C(c1ccccn1)[C@]12Cc3cnn(-c4ccccc4)c3C=C1CCN(S(=O)(=O)c1cccc(C(F)(F)F)c1)C2 [Example 11AZ, (R)-(1-phenyl-6-((3-(trifluoromethyl)phenyl)sulfonyl)-4,4a,5,6,7,8-hexahydro-1H-pyrazolo[3,4-g]isoquinolin-4a-yl)(pyridin-2-yl)methanone] | 20 to 100 | < 0.5 | – | –
O=C(c1cncs1)[C@]12Cc3cnn(-c4ccc(F)cc4)c3C=C1CCN(S(=O)(=O)c1ccc(C(F)(F)F)cc1)C2 [Example 5I, (R)-(1-(4-fluorophenyl)-6-((4-(trifluoromethyl)phenyl)sulfonyl)-4,4a,5,6,7,8-hexahydro-1H-pyrazolo[3,4-g]isoquinolin-4a-yl)(thiazol-5-yl)methanone] | – | – | > 100 | < 0.5
O=C(c1ccccn1)[C@]12Cc3cnn(-c4ccc(F)cc4)c3C=C1CCN(S(=O)(=O)c1cccc(Cl)c1)C2 [Example 2F, (R)-(6-((3-chlorophenyl)sulfonyl)-1-(4-fluorophenyl)-4,4a,5,6,7,8-hexahydro-1H-pyrazolo[3,4-g]isoquinolin-4a-yl)(pyridin-2-yl)methanone] | – | – | < 20 | < 0.5
O=C(c1nccs1)[C@]12Cc3cnn(-c4ccc(F)cc4)c3C=C1CCN(S(=O)(=O)c1cccc(Cl)c1)C2 [Example 12E, (R)-(6-((3-chlorophenyl)sulfonyl)-1-(4-fluorophenyl)-4,4a,5,6,7,8-hexahydro-1H-pyrazolo[3,4-g]isoquinolin-4a-yl)(thiazol-2-yl)methanone] | 20 to 100 | < 0.5 | – | –
O=C(c1nccs1)[C@]12Cc3cnn(-c4ccc(F)cc4)c3C=C1CCN(S(=O)(=O)c1cccc(F)c1)C2 [Example 5A, (R)-(1-(4-fluorophenyl)-6-((3-fluorophenyl)sulfonyl)-4,4a,5,6,7,8-hexahydro-1H-pyrazolo[3,4-g]isoquinolin-4a-yl)(thiazol-2-yl)methanone] | < 20 | < 0.5 | – | –
O=C(c1ccccn1)[C@]12Cc3cnn(-c4ccc(F)cc4)c3C=C1CCN(S(=O)(=O)c1cncc(N3CCCC3)c1)C2 [Example 10B, (R)-(1-(4-fluorophenyl)-6-((5-(pyrrolidin-1-yl)pyridin-3-yl)sulfonyl)-4,4a,5,6,7,8-hexahydro-1H-pyrazolo[3,4-g]isoquinolin-4a-yl)(pyridin-2-yl)methanone] | < 20 | < 0.5 | – | –
O=C(c1ccccn1)[C@]12Cc3cnn(-c4ccc(F)cc4)c3C=C1CCN(S(=O)(=O)C1CCOCC1)C2 [Example 2S, (R)-(1-(4-fluorophenyl)-6-((tetrahydro-2H-pyran-4-yl)sulfonyl)-4,4a,5,6,7,8-hexahydro-1H-pyrazolo[3,4-g]isoquinolin-4a-yl)(pyridin-2-yl)methanone] | ≥ 100 | > 1 | – | –
CC(C)n1cc(S(=O)(=O)N2CCC3=Cc4c(cnn4-c4ccc(F)cc4)C[C@]3(C(=O)c3ccccn3)C2)cn1 [Example 11CD, (R)-(1-(4-fluorophenyl)-6-((1-isopropyl-1H-pyrazol-4-yl)sulfonyl)-4,4a,5,6,7,8-hexahydro-1H-pyrazolo[3,4-g]isoquinolin-4a-yl)(pyridin-2-yl) methanone] | < 20 | < 0.5 | – | –
Cc1ccnc(C(=O)[C@]23Cc4cnn(-c5ccc(F)cc5)c4C=C2CCN(S(=O)(=O)c2cccc(C(=O)O)c2)C3)c1 [Example 11AW, (R)-3-((1-(4-fluorophenyl)-4a-(4-methylpicolinoyl)-4a,5,7,8-tetrahydro-1H-pyrazolo[3,4-g]isoquinolin-6 (4H)-yl)sulfonyl)benzoic acid] | ≥ 100 | < 0.5 | – | –
O=C(c1ccccn1)[C@]12Cc3cnn(-c4ccc(F)cc4)c3C=C1CCN(S(=O)(=O)c1ccc(Cl)cc1)C2 [Example 11A, (R)-(6-((4-chlorophenyl)sulfonyl)-1-(4-fluorophenyl)-4,4a,5,6,7,8-hexahydro-1H-pyrazolo[3,4-g]isoquinolin-4a-yl)(pyridin-2-yl)methanone] | < 20 | < 0.5 | – | –
O=C(c1nccs1)[C@]12Cc3cnn(-c4ccc(F)cc4)c3C=C1CCN(S(=O)(=O)CC1CCCO1)C2 (mixture of isomers) [Example 2B, ((4a R)-1-(4-fluorophenyl)-6-((((R/S)-tetrahydrofuran-2-yl)methyl)sulfonyl)-4,4a,5,6,7,8-hexahydro-1H-pyrazolo[3,4-g]isoquinolin-4a-yl)(thiazol-2-yl)methanone] | ≥ 100 | 0.5 to 1 | – | –
O=C(c1ccccn1)[C@]12Cc3cnn(-c4ccc(F)cc4)c3C=C1CCN(S(=O)(=O)c1cccc(OC(F)(F)F)c1)C2 [Example 11I, (R)-(1-(4-fluorophenyl)-6-((3-(trifluoromethoxy)phenyl)sulfonyl)-4,4a,5,6,7,8-hexahydro-1H-pyrazolo[3,4-g]isoquinolin-4a-yl)(pyridin-2-yl)methanone] | < 20 | < 0.5 | – | –
Cc1n[nH]c(C)c1S(=O)(=O)N1CCC2=Cc3c(cnn3-c3ccc(F)cc3)C[C@]2(C(=O)c2cc(C(F)(F)F)ccn2)C1 [Example 2V, (R)-(6-((3,5-dimethyl-1H-pyrazol-4-yl)sulfonyl)-1-(4-fluorophenyl)-4,4a,5,6,7,8-hexahydro-1H-pyrazolo[3,4-g]isoquinolin-4a-yl)(4-(trifluoromethyl)pyridin-2-yl)methanone] | 20 to 100 | > 1 | – | –
Cc1cnc(C(=O)[C@]23Cc4cnn(-c5ccc(F)cc5)c4C=C2CCN(S(=O)(=O)c2ccc(F)c(F)c2)C3)s1 [Example 12Q, (R)-(6-((3,4-difluorophenyl)sulfonyl)-1-(4-fluorophenyl)-4,4a,5,6,7,8-hexahydro-1H-pyrazolo[3,4-g]isoquinolin-4a-yl)(5-methylthiazol-2-yl)methanone] | < 20 | > 1 | – | –
